From article PMC10006169, “A phase I trial of LXS196, a protein kinase C (PKC) inhibitor, for metastatic uveal melanoma” (British Journal of Cancer, 2023)
“And” between values parts separate entries of the source, which are not always exact repeats. Equal values may be shown once. Marks after values point to notes of the source that are not given here.

Test system: patients with MUM
Test: Grade ≥3 serious adverse events regardless of study drug relationship
Type: in vivo, human
Description: Routine safety assessments, including laboratory assessments, physical examinations, vital signs and electrocardiograms (ECGs), were conducted at regular intervals throughout the study and more frequently as needed following patient assessment by the treating physician. Adverse events (AEs) were assessed continuously according to the National Cancer Institute Common Terminology Criteria for Adverse Events (NCI-CTCAE) v4.03.

SMILES: CC1(N)CCN(c2cccnc2NC(=O)c2nc(-c3ncccc3C(F)(F)F)cnc2N)CC1 [LXS196]
- Acute kidney injury SAE (100 mg QD): 0 n (%)
- Cellulitis SAE (100 mg QD): 0 n (%)
- Constipation SAE (100 mg QD): 0 n (%)
- Diarrhoea SAE (100 mg QD): 0 n (%)
- Eyelid bleeding SAE (100 mg QD): 0 n (%)
- Hepatic cytolysis SAE (100 mg QD): 0 n (%)
- Hepatic failure SAE (100 mg QD): 0 n (%)
- Hypotension SAE (100 mg QD): 0 n (%)
- Nausea SAE (100 mg QD): 0 n (%)
- Neutrophil count decreased SAE (100 mg QD): 0 n (%)
- Oedema peripheral SAE (100 mg QD): 0 n (%)
- Patients with ≥1 SAE (100 mg QD): 0 n (%)
- Pneumonia SAE (100 mg QD): 0 n (%)
- Rash pruritic SAE (100 mg QD): 0 n (%)
- Thrombocytopenia SAE (100 mg QD): 0 n (%)
- Vomiting SAE (100 mg QD): 0 n (%)
- Acute kidney injury SAE (200 mg BID): 0 n (%)
- Cellulitis SAE (200 mg BID): 1 (16.7) n (%)
- Constipation SAE (200 mg BID): 0 n (%)
- Diarrhoea SAE (200 mg BID): 0 n (%)
- Eyelid bleeding SAE (200 mg BID): 0 n (%)
- Hepatic cytolysis SAE (200 mg BID): 0 n (%)
- Hepatic failure SAE (200 mg BID): 0 n (%)
- Hypotension SAE (200 mg BID): 0 n (%)
- Nausea SAE (200 mg BID): 0 n (%)
- Neutrophil count decreased SAE (200 mg BID): 0 n (%)
- Oedema peripheral SAE (200 mg BID): 0 n (%)
- Patients with ≥1 SAE (200 mg BID): 1 (16.7) n (%)
- Pneumonia SAE (200 mg BID): 0 n (%)
- Rash pruritic SAE (200 mg BID): 0 n (%)
- Thrombocytopenia SAE (200 mg BID): 0 n (%)
- Vomiting SAE (200 mg BID): 0 n (%)
- Acute kidney injury SAE (200 mg QD): 0 n (%)
- Cellulitis SAE (200 mg QD): 0 n (%)
- Diarrhoea SAE (200 mg QD): 0 n (%)
- Eyelid bleeding SAE (200 mg QD): 0 n (%)
- Hepatic cytolysis SAE (200 mg QD): 0 n (%)
- Hepatic failure SAE (200 mg QD): 0 n (%)
- Hypotension SAE (200 mg QD): 0 n (%)
- Nausea SAE (200 mg QD): 1 (25.0) n (%)
- Neutrophil count decreased SAE (200 mg QD): 0 n (%)
- Oedema peripheral SAE (200 mg QD): 0 n (%)
- Patients with ≥1 SAE (200 mg QD): 1 (25.0) n (%)
- Pneumonia SAE (200 mg QD): 1 (25.0) n (%)
- Rash pruritic SAE (200 mg QD): 0 n (%)
- Thrombocytopenia SAE (200 mg QD): 0 n (%)
- Vomiting SAE (200 mg QD): 1 (25.0) n (%)
- Acute kidney injury SAE (300 mg BID (RDE)): 1 (5.6) n (%)
- Cellulitis SAE (300 mg BID (RDE)): 0 n (%)
- Constipation SAE (300 mg BID (RDE)): 0 n (%)
- Diarrhoea SAE (300 mg BID (RDE)): 0 n (%)
- Eyelid bleeding SAE (300 mg BID (RDE)): 1 (5.6) n (%)
- Hepatic cytolysis SAE (300 mg BID (RDE)): 1 (5.6) n (%)
- Hepatic failure SAE (300 mg BID (RDE)): 1 (5.6) n (%)
- Hypotension SAE (300 mg BID (RDE)): 0 n (%)
- Nausea SAE (300 mg BID (RDE)): 0 n (%)
- Neutrophil count decreased SAE (300 mg BID (RDE)): 1 (5.6) n (%)
- Oedema peripheral SAE (300 mg BID (RDE)): 1 (5.6) n (%)
- Patients with ≥1 SAE (300 mg BID (RDE)): 5 (27.8) n (%)
- Pneumonia SAE (300 mg BID (RDE)): 1 (5.6) n (%)
- Rash pruritic SAE (300 mg BID (RDE)): 1 (5.6) n (%)
- Thrombocytopenia SAE (300 mg BID (RDE)): 1 (5.6) n (%)
- Vomiting SAE (300 mg BID (RDE)): 0 n (%)
- Acute kidney injury SAE (300 mg QD): 0 n (%)
- Cellulitis SAE (300 mg QD): 0 n (%)
- Constipation SAE (300 mg QD): 0 n (%)
- Diarrhoea SAE (300 mg QD): 0 n (%)
- Eyelid bleeding SAE (300 mg QD): 0 n (%)
- Hepatic cytolysis SAE (300 mg QD): 0 n (%)
- Hepatic failure SAE (300 mg QD): 0 n (%)
- Hypotension SAE (300 mg QD): 0 n (%)
- Nausea SAE (300 mg QD): 0 n (%)
- Neutrophil count decreased SAE (300 mg QD): 0 n (%)
- Oedema peripheral SAE (300 mg QD): 0 n (%)
- Patients with ≥1 SAE (300 mg QD): 0 n (%)
- Pneumonia SAE (300 mg QD): 0 n (%)
- Rash pruritic SAE (300 mg QD): 0 n (%)
- Thrombocytopenia SAE (300 mg QD): 0 n (%)
- Vomiting SAE (300 mg QD): 0 n (%)
- Acute kidney injury SAE (400 mg BID): 0 n (%)
- Cellulitis SAE (400 mg BID): 0 n (%)
- Constipation SAE (400 mg BID): 0 n (%)
- Diarrhoea SAE (400 mg BID): 0 n (%)
- Eyelid bleeding SAE (400 mg BID): 0 n (%)
- Hepatic cytolysis SAE (400 mg BID): 0 n (%)
- Hepatic failure SAE (400 mg BID): 0 n (%)
- Hypotension SAE (400 mg BID): 1 (16.7) n (%)
- Nausea SAE (400 mg BID): 0 n (%)
- Neutrophil count decreased SAE (400 mg BID): 0 n (%)
- Oedema peripheral SAE (400 mg BID): 0 n (%)
- Patients with ≥1 SAE (400 mg BID): 1 (16.7) n (%)
- Pneumonia SAE (400 mg BID): 0 n (%)
- Rash pruritic SAE (400 mg BID): 0 n (%)
- Thrombocytopenia SAE (400 mg BID): 0 n (%)
- Vomiting SAE (400 mg BID): 0 n (%)
- Acute kidney injury SAE (500 mg QD): 0 n (%)
- Cellulitis SAE (500 mg QD): 0 n (%)
- Constipation SAE (500 mg QD): 0 n (%)
- Diarrhoea SAE (500 mg QD): 0^b n (%)
- Eyelid bleeding SAE (500 mg QD): 0 n (%)
- Hepatic cytolysis SAE (500 mg QD): 0 n (%)
- Hepatic failure SAE (500 mg QD): 0 n (%)
- Hypotension SAE (500 mg QD): 3 (27.3) n (%)
- Nausea SAE (500 mg QD): 0 n (%)
- Neutrophil count decreased SAE (500 mg QD): 0 n (%)
- Oedema peripheral SAE (500 mg QD): 0 n (%)
- Patients with ≥1 SAE (500 mg QD): 3 (27.3) n (%)
- Pneumonia SAE (500 mg QD): 0 n (%)
- Rash pruritic SAE (500 mg QD): 0 n (%)
- Thrombocytopenia SAE (500 mg QD): 0 n (%)
- Vomiting SAE (500 mg QD): 0 n (%)
- Acute kidney injury SAE (800 mg QD): 0 n (%)
- Cellulitis SAE (800 mg QD): 0 n (%)
- Constipation SAE (800 mg QD): 0 n (%)
- Diarrhoea SAE (800 mg QD): 0 n (%)
- Eyelid bleeding SAE (800 mg QD): 0 n (%)
- Hepatic cytolysis SAE (800 mg QD): 0 n (%)
- Hepatic failure SAE (800 mg QD): 0 n (%)
- Hypotension SAE (800 mg QD): 1 (100) n (%)
- Nausea SAE (800 mg QD): 0 n (%)
- Neutrophil count decreased SAE (800 mg QD): 0 n (%)
- Oedema peripheral SAE (800 mg QD): 0 n (%)
- Patients with ≥1 SAE (800 mg QD): 1 (100) n (%)
- Pneumonia SAE (800 mg QD): 0 n (%)
- Rash pruritic SAE (800 mg QD): 0 n (%)
- Thrombocytopenia SAE (800 mg QD): 0 n (%)
- Vomiting SAE (800 mg QD): 0 n (%)
- Acute kidney injury SAE (1000 mg QD): 0 n (%)
- Cellulitis SAE (1000 mg QD): 0 n (%)
- Constipation SAE (1000 mg QD): 0 n (%)
- Diarrhoea SAE (1000 mg QD): 0 n (%)
- Eyelid bleeding SAE (1000 mg QD): 0 n (%)
- Hepatic cytolysis SAE (1000 mg QD): 0 n (%)
- Hepatic failure SAE (1000 mg QD): 0 n (%)
- Hypotension SAE (1000 mg QD): 1 (25.0) n (%)
- Nausea SAE (1000 mg QD): 0 n (%)
- Neutrophil count decreased SAE (1000 mg QD): 0 n (%)
- Oedema peripheral SAE (1000 mg QD): 0 n (%)
- Patients with ≥1 SAE (1000 mg QD): 2 (50.0) n (%)
- Pneumonia SAE (1000 mg QD): 1 (25.0) n (%)
- Rash pruritic SAE (1000 mg QD): 0 n (%)
- Thrombocytopenia SAE (1000 mg QD): 0 n (%)
- Vomiting SAE (1000 mg QD): 0 n (%)
- Acute kidney injury SAE (All BID): 1 (3.3) n (%)
- Cellulitis SAE (All BID): 1 (3.3) n (%)
- Constipation SAE (All BID): 0 n (%)
- Diarrhoea SAE (All BID): 0 n (%)
- Eyelid bleeding SAE (All BID): 1 (3.3) n (%)
- Hepatic cytolysis SAE (All BID): 1 (3.3) n (%)
- Hepatic failure SAE (All BID): 1 (3.3) n (%)
- Hypotension SAE (All BID): 1 (3.3) n (%)
- Nausea SAE (All BID): 0 n (%)
- Neutrophil count decreased SAE (All BID): 1 (3.3) n (%)
- Oedema peripheral SAE (All BID): 1 (3.3) n (%)
- Patients with ≥1 SAE (All BID): 7 (23.3) n (%)
- Pneumonia SAE (All BID): 1 (3.3) n (%)
- Rash pruritic SAE (All BID): 1 (3.3) n (%)
- Thrombocytopenia SAE (All BID): 1 (3.3) n (%)
- Vomiting SAE (All BID): 0 n (%)
- Acute kidney injury SAE (All QD): 0 n (%)
- Cellulitis SAE (All QD): 0 n (%)
- Constipation SAE (All QD): 0^b n (%)
- Diarrhoea SAE (All QD): 0^b n (%)
- Eyelid bleeding SAE (All QD): 0 n (%)
- Hepatic cytolysis SAE (All QD): 0 n (%)
- Hepatic failure SAE (All QD): 0 n (%)
- Hypotension SAE (All QD): 5 (13.2) n (%)
- Nausea SAE (All QD): 1 (2.6) n (%)
- Neutrophil count decreased SAE (All QD): 0 n (%)
- Oedema peripheral SAE (All QD): 0 n (%)
- Patients with ≥1 SAE (All QD): 7 (18.4) n (%)
- Pneumonia SAE (All QD): 2 (5.3) n (%)
- Rash pruritic SAE (All QD): 0 n (%)
- Thrombocytopenia SAE (All QD): 0 n (%)
- Vomiting SAE (All QD): 1 (2.6) n (%)
- Acute kidney injury SAE (All patients): 1 (1.5) n (%)
- Cellulitis SAE (All patients): 1 (1.5) n (%)
- Constipation SAE (All patients): 0^b n (%)
- Diarrhoea SAE (All patients): 0^b n (%)
- Eyelid bleeding SAE (All patients): 1 (1.5) n (%)
- Hepatic cytolysis SAE (All patients): 1 (1.5) n (%)
- Hepatic failure SAE (All patients): 1 (1.5) n (%)
- Hypotension SAE (All patients): 6 (8.8) n (%)
- Nausea SAE (All patients): 1 (1.5) n (%)
- Neutrophil count decreased SAE (All patients): 1 (1.5) n (%)
- Oedema peripheral SAE (All patients): 1 (1.5) n (%)
- Patients with ≥1 SAE (All patients): 14 (20.6%) n (%) and 14 (20.6) n (%)
- Pneumonia SAE (All patients): 3 (4.4) n (%)
- Rash pruritic SAE (All patients): 1 (1.5) n (%)
- Thrombocytopenia SAE (All patients): 1 (1.5) n (%)
- Vomiting SAE (All patients): 1 (1.5) n (%)
